Measured values: PubChem BioAssay (NCI)
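GI50 is the concentration that inhibits growth by half. TGI: concentration producing complete growth inhibition.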

How the values were obtained:
Test in all cases: growth of human tumour cells (NCI), 384-well format
HOP-62 NSCLC = test system: HOP-62 NSCLC
NCI-H226 lung = test system: NCI-H226 lung
MOLT-4 leukemia = test system: MOLT-4 leukemia
OVCAR-5 ovarian = test system: OVCAR-5 ovarian
A498 renal = test system: A498 renal
U251 glioblastoma = test system: U251 glioblastoma
HCC-2998 colon = test system: HCC-2998 colon
HOP-92 NSCLC = test system: HOP-92 NSCLC
NCI-H460 NSCLC = test system: NCI-H460 NSCLC
NCI-H522 lung = test system: NCI-H522 lung
HT29 colon = test system: HT29 colon
SN12C renal = test system: SN12C renal
UACC-257 melanoma = test system: UACC-257 melanoma
SF-295 CNS = test system: SF-295 CNS
OVCAR-8 ovarian = test system: OVCAR-8 ovarian
UACC-62 melanoma = test system: UACC-62 melanoma
SK-MEL-2 melanoma = test system: SK-MEL-2 melanoma
DU-145 prostate = test system: DU-145 prostate
M14 melanoma = test system: M14 melanoma
OVCAR-3 ovarian = test system: OVCAR-3 ovarian
KM12 colon = test system: KM12 colon
SF-268 CNS = test system: SF-268 CNS
BT-549 breast = test system: BT-549 breast
MDA-MB-231 breast = test system: MDA-MB-231 breast
COLO 205 colon = test system: COLO 205 colon
CCRF-CEM leukemia = test system: CCRF-CEM leukemia
EKVX NSCLC = test system: EKVX NSCLC
OVCAR-4 ovarian = test system: OVCAR-4 ovarian
SR leukemia = test system: SR leukemia
CAKI-1 renal = test system: CAKI-1 renal
MDA-MB-468 breast = test system: MDA-MB-468 breast
SNB-75 CNS = test system: SNB-75 CNS
RXF 393 renal = test system: RXF 393 renal
NCI/ADR-RES ovarian = test system: NCI/ADR-RES ovarian
SW-620 colon = test system: SW-620 colon
SK-OV-3 ovarian = test system: SK-OV-3 ovarian
TK-10 renal = test system: TK-10 renal
ACHN renal = test system: ACHN renal
NCI-H322M lung = test system: NCI-H322M lung
PC-3 prostate = test system: PC-3 prostate
MCF7 breast = test system: MCF7 breast
IGROV1 ovarian = test system: IGROV1 ovarian
HL-60(TB) leukemia = test system: HL-60(TB) leukemia
786-0 renal = test system: 786-0 renal
T-47D breast = test system: T-47D breast
HCT-15 colon = test system: HCT-15 colon
SK-MEL-5 melanoma = test system: SK-MEL-5 melanoma
HS 578T breast = test system: HS 578T breast
SK-MEL-28 melanoma = test system: SK-MEL-28 melanoma
SF-539 CNS = test system: SF-539 CNS
MDA-MB-435 melanoma = test system: MDA-MB-435 melanoma
SNB-19 CNS = test system: SNB-19 CNS
NCI-H23 lung = test system: NCI-H23 lung
A549 NSCLC = test system: A549 NSCLC
RPMI-8226 leukemia = test system: RPMI-8226 leukemia
MALME-3M melanoma = test system: MALME-3M melanoma

## NC(=O)c1ccc(I)c([N+](=O)[O-])c1
HOP-62 NSCLC
  GI50: 17.9 µM
  TGI: 36.7 µM
NCI-H226 lung
  GI50: 53.4 µM
  TGI: > 100 µM
MOLT-4 leukemia
  GI50: 20.5 µM
  TGI: 38.8 µM
OVCAR-5 ovarian
  GI50: 21 µM
  TGI: 39.9 µM
A498 renal
  GI50: 91.6 µM
  TGI: > 100 µM
U251 glioblastoma
  GI50: 53.1 µM
  TGI: > 100 µM
HCC-2998 colon
  GI50: 28.2 µM
  TGI: 56.2 µM
HOP-92 NSCLC
  GI50: 21.7 µM
  TGI: 42.8 µM
NCI-H460 NSCLC
  GI50: 78.5 µM
  TGI: > 100 µM
NCI-H522 lung
  GI50: 15.4 µM
  TGI: 30.1 µM
HT29 colon
  GI50: 44 µM
  TGI: > 100 µM
SN12C renal
  GI50: 62.7 µM
  TGI: > 100 µM
UACC-257 melanoma
  GI50: 39.8 µM
  TGI: > 100 µM
SF-295 CNS
  GI50: > 100 µM
  TGI: > 100 µM
OVCAR-8 ovarian
  GI50: > 100 µM
  TGI: > 100 µM
UACC-62 melanoma
  GI50: 39 µM
  TGI: > 100 µM
SK-MEL-2 melanoma
  GI50: 26.8 µM
  TGI: 72.8 µM
DU-145 prostate
  GI50: > 100 µM
  TGI: > 100 µM
M14 melanoma
  GI50: 31 µM
  TGI: > 100 µM
OVCAR-3 ovarian
  GI50: 23.6 µM
  TGI: 58.4 µM
KM12 colon
  GI50: 57.4 µM
  TGI: > 100 µM
SF-268 CNS
  GI50: > 100 µM
  TGI: > 100 µM
BT-549 breast
  GI50: 71.1 µM
  TGI: > 100 µM
MDA-MB-231 breast
  GI50: 70.2 µM
  TGI: > 100 µM
COLO 205 colon
  GI50: > 100 µM
  TGI: > 100 µM
CCRF-CEM leukemia
  GI50: 21.4 µM
  TGI: 45.3 µM
EKVX NSCLC
  GI50: 19.4 µM
  TGI: 35.2 µM
OVCAR-4 ovarian
  GI50: 17.9 µM
  TGI: 31.9 µM
SR leukemia
  GI50: 25 µM
  TGI: 57.3 µM
CAKI-1 renal
  GI50: 20.6 µM
  TGI: 36.1 µM
MDA-MB-468 breast
  GI50: 10 µM
  TGI: 23.3 µM
SNB-75 CNS
  GI50: 21.4 µM
  TGI: > 100 µM
RXF 393 renal
  GI50: 21.4 µM
  TGI: 36.3 µM
NCI/ADR-RES ovarian
  GI50: > 100 µM
  TGI: > 100 µM
SW-620 colon
  GI50: > 100 µM
  TGI: > 100 µM
SK-OV-3 ovarian
  GI50: 68.7 µM
  TGI: > 100 µM
TK-10 renal
  GI50: > 100 µM
  TGI: > 100 µM
ACHN renal
  GI50: > 100 µM
  TGI: > 100 µM
NCI-H322M lung
  GI50: 33 µM
  TGI: 95.7 µM
PC-3 prostate
  GI50: > 100 µM
  TGI: > 100 µM
MCF7 breast
  GI50: > 100 µM
  TGI: > 100 µM
IGROV1 ovarian
  GI50: 97.7 µM
  TGI: > 100 µM
HL-60(TB) leukemia
  GI50: 18 µM
  TGI: 32.1 µM
786-0 renal
  GI50: > 100 µM
  TGI: > 100 µM
T-47D breast
  GI50: 21 µM
  TGI: 38.1 µM
HCT-15 colon
  GI50: 44.1 µM
  TGI: > 100 µM
SK-MEL-5 melanoma
  GI50: 25.2 µM
  TGI: 89.3 µM
HS 578T breast
  GI50: 32.4 µM
  TGI: > 100 µM
SK-MEL-28 melanoma
  GI50: 44.3 µM
  TGI: > 100 µM
SF-539 CNS
  GI50: > 100 µM
  TGI: > 100 µM
MDA-MB-435 melanoma
  GI50: > 100 µM
  TGI: > 100 µM
SNB-19 CNS
  GI50: > 100 µM
  TGI: > 100 µM
NCI-H23 lung
  GI50: 24.3 µM
  TGI: 52.5 µM
A549 NSCLC
  GI50: > 100 µM
  TGI: > 100 µM
RPMI-8226 leukemia
  GI50: 33 µM
  TGI: 78.9 µM
MALME-3M melanoma
  GI50: 40.6 µM
  TGI: > 100 µM

## C[C@]1(c2nc3c(C(N)=O)cccc3[nH]2)CCCN1
HOP-62 NSCLC
  GI50: 40.7 µM
  TGI: > 100 µM
NCI-H226 lung
  GI50: 90.3 µM
  TGI: > 100 µM
MOLT-4 leukemia
  GI50: 29.6 µM
  TGI: > 100 µM
OVCAR-5 ovarian
  GI50: 84.4 µM
  TGI: > 100 µM
A498 renal
  GI50: > 100 µM
  TGI: > 100 µM
U251 glioblastoma
  GI50: > 100 µM
  TGI: > 100 µM
HCC-2998 colon
  GI50: 26.6 µM
  TGI: > 100 µM
HOP-92 NSCLC
  GI50: > 100 µM
  TGI: > 100 µM
NCI-H460 NSCLC
  GI50: 28.7 µM
  TGI: > 100 µM
NCI-H522 lung
  GI50: > 100 µM
  TGI: > 100 µM
HT29 colon
  GI50: > 100 µM
  TGI: > 100 µM
SN12C renal
  GI50: 85.2 µM
  TGI: > 100 µM
UACC-257 melanoma
  GI50: > 100 µM
  TGI: > 100 µM
SF-295 CNS
  GI50: 38.9 µM
  TGI: > 100 µM
OVCAR-8 ovarian
  GI50: > 100 µM
  TGI: > 100 µM
UACC-62 melanoma
  GI50: 95.6 µM
  TGI: > 100 µM
SK-MEL-2 melanoma
  GI50: > 100 µM
  TGI: > 100 µM
DU-145 prostate
  GI50: > 100 µM
  TGI: > 100 µM
M14 melanoma
  GI50: > 100 µM
  TGI: > 100 µM
OVCAR-3 ovarian
  GI50: > 100 µM
  TGI: > 100 µM
KM12 colon
  GI50: > 100 µM
  TGI: > 100 µM
SF-268 CNS
  GI50: > 100 µM
  TGI: > 100 µM
BT-549 breast
  GI50: > 100 µM
  TGI: > 100 µM
MDA-MB-231 breast
  GI50: > 100 µM
  TGI: > 100 µM
COLO 205 colon
  GI50: > 100 µM
  TGI: > 100 µM
CCRF-CEM leukemia
  GI50: > 100 µM
  TGI: > 100 µM
EKVX NSCLC
  GI50: > 100 µM
  TGI: > 100 µM
OVCAR-4 ovarian
  GI50: > 100 µM
  TGI: > 100 µM
SR leukemia
  GI50: 14.5 µM
  TGI: 28.3 µM
CAKI-1 renal
  GI50: > 100 µM
  TGI: > 100 µM
MDA-MB-468 breast
  GI50: 16.2 µM
  TGI: > 100 µM
RXF 393 renal
  GI50: > 100 µM
  TGI: > 100 µM
NCI/ADR-RES ovarian
  GI50: > 100 µM
  TGI: > 100 µM
SW-620 colon
  GI50: > 100 µM
  TGI: > 100 µM
SK-OV-3 ovarian
  GI50: > 100 µM
  TGI: > 100 µM
TK-10 renal
  GI50: > 100 µM
  TGI: > 100 µM
ACHN renal
  GI50: > 100 µM
  TGI: > 100 µM
NCI-H322M lung
  GI50: > 100 µM
  TGI: > 100 µM
PC-3 prostate
  GI50: > 100 µM
  TGI: > 100 µM
MCF7 breast
  GI50: 72.9 µM
  TGI: > 100 µM
IGROV1 ovarian
  GI50: > 100 µM
  TGI: > 100 µM
HL-60(TB) leukemia
  GI50: > 100 µM
  TGI: > 100 µM
786-0 renal
  GI50: > 100 µM
  TGI: > 100 µM
T-47D breast
  GI50: > 100 µM
  TGI: > 100 µM
HCT-15 colon
  GI50: > 100 µM
  TGI: > 100 µM
SK-MEL-5 melanoma
  GI50: > 100 µM
  TGI: > 100 µM
HS 578T breast
  GI50: > 100 µM
  TGI: > 100 µM
SK-MEL-28 melanoma
  GI50: > 100 µM
  TGI: > 100 µM
SF-539 CNS
  GI50: > 100 µM
  TGI: > 100 µM
MDA-MB-435 melanoma
  GI50: > 100 µM
  TGI: > 100 µM
SNB-19 CNS
  GI50: > 100 µM
  TGI: > 100 µM
NCI-H23 lung
  GI50: 78.7 µM
  TGI: > 100 µM
A549 NSCLC
  GI50: > 100 µM
  TGI: > 100 µM
RPMI-8226 leukemia
  GI50: > 100 µM
  TGI: > 100 µM
MALME-3M melanoma
  GI50: > 100 µM
  TGI: > 100 µM
